Measurements as given in PubChem BioAssay (NCI).
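Step 1: Grow cells in 96-well plates. Step 2: Expose to compound for 48 hours at 5 concentrations. Step 3: Interpolate endpoints linearly; if unreached, use highest concentration. The concentration for 50% growth inhibition is given as GI50. TGI is the concentration that stops growth completely.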

Tests used:
Assay in all cases: NCI tumour cell line growth inhibition, 48 h
U251 CNS = system: U251 CNS
OVCAR-3 ovarian = system: OVCAR-3 ovarian
CCRF-CEM leukemia = system: CCRF-CEM leukemia
HCT-116 colon = system: HCT-116 colon
RXF 393 renal = system: RXF 393 renal
DU-145 prostate = system: DU-145 prostate
MDA-MB-435 = system: MDA-MB-435
K-562 leukemia = system: K-562 leukemia
SK-OV-3 ovarian = system: SK-OV-3 ovarian
OVCAR-5 ovarian = system: OVCAR-5 ovarian
NCI/ADR-RES ovarian = system: NCI/ADR-RES ovarian
UACC-257 melanoma = system: UACC-257 melanoma
NCI-H23 lung = system: NCI-H23 lung
HOP-62 NSCLC = system: HOP-62 NSCLC
MDA-MB-231 breast = system: MDA-MB-231 breast
UACC-62 melanoma = system: UACC-62 melanoma
COLO 205 colon = system: COLO 205 colon
HT29 colon = system: HT29 colon
A549 NSCLC = system: A549 NSCLC
HS 578T breast = system: HS 578T breast
BT-549 breast = system: BT-549 breast
SF-268 CNS = system: SF-268 CNS
SR leukemia = system: SR leukemia
NCI-H460 lung = system: NCI-H460 lung
MOLT-4 leukemia = system: MOLT-4 leukemia
SN12C renal = system: SN12C renal
RPMI-8226 leukemia = system: RPMI-8226 leukemia
SK-MEL-2 melanoma = system: SK-MEL-2 melanoma
EKVX NSCLC = system: EKVX NSCLC
NCI-H522 lung = system: NCI-H522 lung
SK-MEL-5 melanoma = system: SK-MEL-5 melanoma
HCT-15 colon = system: HCT-15 colon
T-47D breast = system: T-47D breast
786-0 renal = system: 786-0 renal
MCF7 breast = system: MCF7 breast
A498 renal = system: A498 renal
NCI-H226 lung = system: NCI-H226 lung
IGROV1 ovarian = system: IGROV1 ovarian
KM12 colon = system: KM12 colon
HCC-2998 colon = system: HCC-2998 colon
HOP-92 NSCLC = system: HOP-92 NSCLC
UO-31 renal = system: UO-31 renal
SF-539 CNS = system: SF-539 CNS
LOX IMVI melanoma = system: LOX IMVI melanoma
ACHN renal = system: ACHN renal
SF-295 CNS = system: SF-295 CNS
SK-MEL-28 melanoma = system: SK-MEL-28 melanoma
HL-60(TB) leukemia = system: HL-60(TB) leukemia
OVCAR-8 ovarian = system: OVCAR-8 ovarian
MALME-3M melanoma = system: MALME-3M melanoma
PC-3 prostate = system: PC-3 prostate
CAKI-1 renal = system: CAKI-1 renal
OVCAR-4 ovarian = system: OVCAR-4 ovarian
M14 melanoma = system: M14 melanoma
SNB-75 CNS = system: SNB-75 CNS
SNB-19 CNS = system: SNB-19 CNS
SW-620 colon = system: SW-620 colon
TK-10 renal = system: TK-10 renal

For `COC(=O)C1=CN(CC2=CC(=O)C(C)=CC2=O)C=C(C(=O)OC)C1c1cccc(OC)c1OC`, which GI50 (U251 CNS) is on record?
The GI50 was 18.6 µM.

And the TGI (U251 CNS)?
Its TGI is 50.2 µM.

What about the GI50 (OVCAR-3 ovarian) of the same molecule?
The GI50 was 8.19 µM.

And the TGI (OVCAR-3 ovarian)?
The TGI was 24 µM.

And the GI50 (CCRF-CEM leukemia)?
Its GI50 is 12.5 µM.

And the TGI (CCRF-CEM leukemia)?
Its TGI is 77.9 µM.

What about the GI50 (HCT-116 colon) of the same molecule?
Its GI50 is 18.5 µM.

What about the TGI (HCT-116 colon) of the same molecule?
Its TGI is 36.7 µM.

What about the GI50 (RXF 393 renal) of the same molecule?
The GI50 was 11.5 µM.

What about the TGI (RXF 393 renal) of the same molecule?
Its TGI is 26.9 µM.

And the GI50 (DU-145 prostate)?
The GI50 was 17.4 µM.

What about the TGI (DU-145 prostate) of the same molecule?
Its TGI is 33.1 µM.

And the GI50 (MDA-MB-435)?
Its GI50 is 15.8 µM.

What about the TGI (MDA-MB-435) of the same molecule?
Its TGI is 39.3 µM.

And the GI50 (K-562 leukemia)?
Its GI50 is 3.62 µM.

What about the TGI (K-562 leukemia) of the same molecule?
Its TGI is 26 µM.

And the GI50 (SK-OV-3 ovarian)?
The GI50 was 42.8 µM.

And the TGI (SK-OV-3 ovarian)?
Its TGI is over 61.5 µM.

What about the GI50 (OVCAR-5 ovarian) of the same molecule?
The GI50 was 18.7 µM.

What about the TGI (OVCAR-5 ovarian) of the same molecule?
The TGI was 36.3 µM.

And the GI50 (NCI/ADR-RES ovarian)?
Its GI50 is 18.3 µM.

What about the TGI (NCI/ADR-RES ovarian) of the same molecule?
The TGI was 38.3 µM.

What about the GI50 (UACC-257 melanoma) of the same molecule?
The GI50 was 18.5 µM.

And the TGI (UACC-257 melanoma)?
The TGI was 43.5 µM.

What about the GI50 (NCI-H23 lung) of the same molecule?
Its GI50 is 22.4 µM.

And the TGI (NCI-H23 lung)?
The TGI was over 55.1 µM.

What about the GI50 (HOP-62 NSCLC) of the same molecule?
Its GI50 is 15.8 µM.

What about the TGI (HOP-62 NSCLC) of the same molecule?
Its TGI is over 48.1 µM.

What about the GI50 (MDA-MB-231 breast) of the same molecule?
The GI50 was 11.8 µM.

What about the TGI (MDA-MB-231 breast) of the same molecule?
The TGI was 28.9 µM.

What about the GI50 (UACC-62 melanoma) of the same molecule?
Its GI50 is 13 µM.

And the TGI (UACC-62 melanoma)?
The TGI was 30.4 µM.

What about the GI50 (COLO 205 colon) of the same molecule?
The GI50 was 9.81 µM.

What about the TGI (COLO 205 colon) of the same molecule?
Its TGI is over 32.6 µM.

And the GI50 (HT29 colon)?
The GI50 was 41.1 µM.

What about the TGI (HT29 colon) of the same molecule?
Its TGI is over 100 µM.

What about the GI50 (A549 NSCLC) of the same molecule?
Its GI50 is 13 µM.

What about the TGI (A549 NSCLC) of the same molecule?
Its TGI is over 51.5 µM.

What about the GI50 (HS 578T breast) of the same molecule?
The GI50 was 27.1 µM.

What about the TGI (HS 578T breast) of the same molecule?
The TGI was over 87.3 µM.

What about the GI50 (BT-549 breast) of the same molecule?
Its GI50 is 34.3 µM.

What about the TGI (BT-549 breast) of the same molecule?
Its TGI is over 100 µM.

And the GI50 (SF-268 CNS)?
Its GI50 is 18.7 µM.

What about the TGI (SF-268 CNS) of the same molecule?
The TGI was over 68.4 µM.

And the GI50 (SR leukemia)?
The GI50 was 1080 nM.

And the TGI (SR leukemia)?
Its TGI is 13.8 µM.

What about the GI50 (NCI-H460 lung) of the same molecule?
Its GI50 is 19.7 µM.

And the TGI (NCI-H460 lung)?
Its TGI is over 70.7 µM.

What about the GI50 (MOLT-4 leukemia) of the same molecule?
The GI50 was 3.28 µM.

And the TGI (MOLT-4 leukemia)?
The TGI was 9.68 µM.

What about the GI50 (SN12C renal) of the same molecule?
Its GI50 is 13.8 µM.

And the TGI (SN12C renal)?
Its TGI is 34 µM.

And the GI50 (RPMI-8226 leukemia)?
The GI50 was 3.09 µM.

What about the TGI (RPMI-8226 leukemia) of the same molecule?
Its TGI is 10.9 µM.

And the GI50 (SK-MEL-2 melanoma)?
The GI50 was 19.8 µM.

And the TGI (SK-MEL-2 melanoma)?
Its TGI is 52.1 µM.

And the GI50 (EKVX NSCLC)?
Its GI50 is 35.6 µM.

What about the TGI (EKVX NSCLC) of the same molecule?
The TGI was over 100 µM.

What about the GI50 (NCI-H522 lung) of the same molecule?
Its GI50 is 17 µM.

What about the TGI (NCI-H522 lung) of the same molecule?
Its TGI is 45.2 µM.

What about the GI50 (SK-MEL-5 melanoma) of the same molecule?
The GI50 was 15.2 µM.

And the TGI (SK-MEL-5 melanoma)?
Its TGI is 32.6 µM.

What about the GI50 (HCT-15 colon) of the same molecule?
The GI50 was 18.4 µM.

What about the TGI (HCT-15 colon) of the same molecule?
The TGI was 36.9 µM.

And the GI50 (T-47D breast)?
The GI50 was 46.2 µM.

And the TGI (T-47D breast)?
The TGI was over 94.4 µM.

And the GI50 (786-0 renal)?
The GI50 was 7.56 µM.

What about the TGI (786-0 renal) of the same molecule?
Its TGI is 25.3 µM.

And the GI50 (MCF7 breast)?
Its GI50 is 18.6 µM.

And the TGI (MCF7 breast)?
Its TGI is 55.2 µM.

What about the GI50 (A498 renal) of the same molecule?
Its GI50 is 20.8 µM.

What about the TGI (A498 renal) of the same molecule?
The TGI was 55.2 µM.

What about the GI50 (NCI-H226 lung) of the same molecule?
The GI50 was 15.6 µM.

And the TGI (NCI-H226 lung)?
Its TGI is 40.5 µM.

And the GI50 (IGROV1 ovarian)?
The GI50 was 17.4 µM.

And the TGI (IGROV1 ovarian)?
Its TGI is 47.3 µM.

What about the GI50 (KM12 colon) of the same molecule?
Its GI50 is 18 µM.

And the TGI (KM12 colon)?
The TGI was 57.2 µM.

And the GI50 (HCC-2998 colon)?
The GI50 was 14.2 µM.

And the TGI (HCC-2998 colon)?
The TGI was 27.2 µM.

What about the GI50 (HOP-92 NSCLC) of the same molecule?
Its GI50 is 2680 nM.

What about the TGI (HOP-92 NSCLC) of the same molecule?
Its TGI is 17.1 µM.

What about the GI50 (UO-31 renal) of the same molecule?
Its GI50 is 12.9 µM.

What about the TGI (UO-31 renal) of the same molecule?
The TGI was 25.5 µM.

And the GI50 (SF-539 CNS)?
The GI50 was 17.1 µM.

What about the TGI (SF-539 CNS) of the same molecule?
The TGI was 56.2 µM.

And the GI50 (LOX IMVI melanoma)?
Its GI50 is 20 µM.

And the TGI (LOX IMVI melanoma)?
Its TGI is 45.2 µM.

And the GI50 (ACHN renal)?
Its GI50 is 6.69 µM.

And the TGI (ACHN renal)?
The TGI was 22.2 µM.

And the GI50 (SF-295 CNS)?
The GI50 was 6.88 µM.

What about the TGI (SF-295 CNS) of the same molecule?
The TGI was over 41.8 µM.

What about the GI50 (SK-MEL-28 melanoma) of the same molecule?
Its GI50 is 31 µM.

And the TGI (SK-MEL-28 melanoma)?
Its TGI is over 57.9 µM.

What about the GI50 (HL-60(TB) leukemia) of the same molecule?
Its GI50 is 5.07 µM.

What about the TGI (HL-60(TB) leukemia) of the same molecule?
Its TGI is 14.1 µM.

What about the GI50 (OVCAR-8 ovarian) of the same molecule?
The GI50 was 16.2 µM.

And the TGI (OVCAR-8 ovarian)?
Its TGI is 42.8 µM.

And the GI50 (MALME-3M melanoma)?
The GI50 was 13.5 µM.

And the TGI (MALME-3M melanoma)?
Its TGI is 34.3 µM.

What about the GI50 (PC-3 prostate) of the same molecule?
Its GI50 is 15.3 µM.

And the TGI (PC-3 prostate)?
Its TGI is 38.6 µM.

What about the GI50 (CAKI-1 renal) of the same molecule?
The GI50 was 10.9 µM.

What about the TGI (CAKI-1 renal) of the same molecule?
The TGI was 29.7 µM.

What about the GI50 (OVCAR-4 ovarian) of the same molecule?
Its GI50 is 12 µM.

And the TGI (OVCAR-4 ovarian)?
Its TGI is over 60.5 µM.

And the GI50 (M14 melanoma)?
Its GI50 is 15.3 µM.

And the TGI (M14 melanoma)?
Its TGI is 29.4 µM.

And the GI50 (SNB-75 CNS)?
The GI50 was over 100 µM.

And the TGI (SNB-75 CNS)?
The TGI was over 100 µM.

And the GI50 (SNB-19 CNS)?
The GI50 was over 43.1 µM.

And the TGI (SNB-19 CNS)?
Its TGI is over 70 µM.

And the GI50 (SW-620 colon)?
Its GI50 is 19.4 µM.

What about the TGI (SW-620 colon) of the same molecule?
Its TGI is over 70.6 µM.

And the GI50 (TK-10 renal)?
Its GI50 is 8.35 µM.

What about the TGI (TK-10 renal) of the same molecule?
Its TGI is 27.1 µM.
